These results are taken from ChEMBL document CHEMBL1125405, “Synthesis of alkoxy-substituted diaryl compounds and correlation of ring separation with inhibition of tubulin polymerization: differential enhancement of inhibitory effects under suboptimal polymerization reaction conditions” (J Med Chem, 1992).

SMILES strings stand for the structures.

One assay deals with HL-60. Nature of the assay: Cytotoxicity of compound against HL-60 human leukemia cells. The assay is classed as functional, cell-based.
Settings: not given
`COc1ccc(Cc2cc(OC)c(OC)c(OC)c2)cc1O` returned an IC50 of 100 nM. Consider `COc1ccc(CCc2cc(OC)c(OC)c(OC)c2)cc1O`, for which the IC50 worked out at 50 nM. Consider `COc1ccc(CCCc2cc(OC)c(OC)c(OC)c2)cc1O`, for which inhibition was half-maximal at 300 nM (IC50).

A further assay has as its system L1210. Nature of the assay: Compound was tested for the inhibition of L1210 leukemia cells growth […]. In kind it is functional, cell-based. Conditions: Mus musculus.
Regarding `COc1ccc(CCc2cc(OC)c(OC)c(OC)c2)cc1O`, half-maximal inhibition (IC50) was put at 70 nM.

A further assay has as its system L1210. The assay is described as follows: Compound was tested for the inhibition of murine L1210 leukemia cells growth by 50%. The assay is classed as functional, cell-based. The conditions noted are these: Mus musculus.
`COc1ccc(Cc2cc(OC)c(OC)c(OC)c2)cc1O`: the IC50 was found to be 200 nM. Same read-out and setting: the value for `COc1ccc(CCCc2cc(OC)c(OC)c(OC)c2)cc1O` was 400 nM.

Another assay deals with T1, Tubulin (Bos taurus, UniProt Q6B856+Q862L2+Q862F3). The assay is described as follows: Inhibition of glutamate-dependent tubulin polymerization at 30 degrees C(0.25 mM MgCl2). In kind it is functional.
Settings: not given
`CCOc1cc2c(cc1CCCc1ccc(OC)cc1)OCO2` gave an IC50 of 2700 nM.

The compound `CCOc1cc2c(cc1CCc1ccc(OC)cc1)OCO2` yielded an IC50 of 3800 nM. In turn, `CCOc1cc2c(cc1C/C=C/c1ccc(OC)cc1)OCO2` came in with an IC50 of 1900 nM. The compound `COc1ccc(C(C)c2cc3c(cc2OC)OCO3)cc1` (stereo not given) had an IC50 of 2500 nM. Compound `COc1c(-c2ccc(OC)c(=O)cc2)ccc(C=O)c1C=O` displayed an IC50 of 1200 nM. On the same count and under the same terms, in the case of `COc1ccc(CCCCc2cc(OC)c(OC)c(OC)c2)cc1O` it was 4400 nM; in that of `CCOc1cc2c(cc1Cc1ccc(OC)cc1)OCO2`, 2000 nM. In turn, `CCOc1cc2c(cc1C(C)c1ccc(OC)cc1)OCO2` (stereo not given) had an IC50 of 1800 nM. Regarding `COc1ccc(Cc2cc3c(cc2OC)OCO3)cc1`, the IC50 was 5400 nM.

Consider `COc1ccc(CCc2cc3c(cc2OC)OCO3)cc1`, for which the IC50 was 8800 nM. `COc1ccc(-c2cc(OC)c(OC)c(OC)c2)cc1O` gave an IC50 of more than 40000 nM. Same read-out and setting: in the case of `COc1ccc(CCCCc2cc3c(cc2OC)OCO3)cc1` it was 7500 nM; in that of `COc1ccc(/C=C/Cc2cc3c(cc2OC)OCO3)cc1`, 3900 nM.

Turning to `CCOc1cc2c(cc1/C=C\c1ccc(OC)cc1)OCO2`, the IC50 is more than 40000 nM. `COc1ccc(Cc2cc(OC)c(OC)c(OC)c2)cc1O`: the IC50 came out at 2300 nM. `COc1ccc(CCCc2cc3c(cc2OC)OCO3)cc1` yielded an IC50 of 3800 nM.

With `COc1ccc(CCc2cc(OC)c(OC)c(OC)c2)cc1O`, the IC50 was 1600 nM. Turning to `COc1ccc(CCCc2cc(OC)c(OC)c(OC)c2)cc1O`, the IC50 is 3000 nM.

In the next assay the target is T1, Tubulin. Nature of the assay: Concentration required to inhibit the extent of glutamate-dependent tubulin polymerization by 50% at 37 degrees C(1.0 mM MgCl2). The assay is classed as functional.
Settings: not given
With `COc1c(-c2ccc(OC)c(=O)cc2)ccc(C=O)c1C=O`, the IC50 was found to be 2600 nM. `COc1ccc(CCCCc2cc(OC)c(OC)c(OC)c2)cc1O` displayed an IC50 of 30000 nM. Take `COc1ccc(-c2cc(OC)c(OC)c(OC)c2)cc1O`: the IC50 was more than 40000 nM.

`COc1ccc(Cc2cc(OC)c(OC)c(OC)c2)cc1O`: the IC50 was 7700 nM. On to `COc1ccc(CCc2cc(OC)c(OC)c(OC)c2)cc1O`, for which the IC50 came to 3500 nM.

`COc1ccc(CCCc2cc(OC)c(OC)c(OC)c2)cc1O`: the IC50 amounted to 11000 nM.
